Like-named read-outs stand apart in the source and are kept apart here.
Key:
HUVEC cells [1] = test: EF-induced reorientation of endothelial cells (orientation index Oi); format: cell-based, human
Method: A series of images was taken with an image analyser immediately before EF exposure and at 4, 8 and 24 hours of EF exposure. Cell orientation was quantified as an orientation index (Oi), which is defined as Oi=cos 2(α), where a is the angle formed by the long axis of a cell with a line drawn perpendicular to the field lines. A cell with its long axis parallel to the vector of the EF will have an Oi of −1, and a cell with its long axis exactly perpendicular to the EF vector will have an Oi of +1. A randomly oriented population of cells will have an average Oi {defined as [Σn cos 2(α)]÷n} of 0. The significance of this two-dimensional orientation distribution against randomness was calculated using Rayleigh's distribution. A long:short axis ratio was calculated for assessment of elongation.
Cell alignment was quantified using an orientation index Oi=cos 2(α), where α is the angle formed between the long axis of a cell and a line drawn perpendicular to the field lines. In cells oriented perpendicular to the field vector, the Oi is +1, cells parallel to the field vector give an Oi of −1 and random orientation gives an Oi of 0.

HUVEC cells [2] = test: EF-induced elongation of endothelial cells (long:short axis ratio); format: cell-based, human; details: for long:short axis ratio in EF-treated cells: inhibitor present during EF
Method: HUVEC cells were seeded in a trough formed by two parallel (1 cm apart) strips of glass coverslip (No. 1, length of 22 mm) fixed to the base of the dish with silicone grease. Scratch lines were made perpendicular to the long axis of the chamber with a fine sterile needle and used as reference marks for directed cell migration. Cells were incubated for 24-48 hours (37° C., 5% CO2) before a roof coverslip was applied and sealed with silicone grease. The final dimensions of the chamber, through which current was passed, were 22×10×0.2 mm. Agar-salt bridges not less than 15 cm long were used to connect silver/silver-chloride electrodes in beakers of Steinberg's solution (58 mM NaCl, 0.67 mM KCl, 0.44 mM Ca(NO3)2, 1.3 mM MgSO4, 4.6 mM Trizma base, pH 7.8-8.0), to pools of excess culture medium at either side of the chamber. Field strengths were measured directly at the beginning of, the end of and during each experiment. No fluctuations in field strength were observed. […] (50 μM), the Rho kinase inhibitor Y27632 (50 μM), both Akt and Rho kinase inhibitors (10 μM each) or latrunculin (50 nM) for 1 hour before EF stimulation. The same concentration of drug was present during EF exposure in a CO2 incubator.
A series of images was taken with an image analyser immediately before EF exposure and at 4, 8 and 24 hours of EF exposure. Cell orientation was quantified as an orientation index (Oi), which is defined as Oi=cos 2(α), where a is the angle formed by the long axis of a cell with a line drawn perpendicular to the field lines. A cell with its long axis parallel to the vector of the EF will have an Oi of −1, and a cell with its long axis exactly perpendicular to the EF vector will have an Oi of +1. […] The significance of this two-dimensional orientation distribution against randomness was calculated using Rayleigh's distribution. A long:short axis ratio was calculated for assessment of elongation.
HUVEC cells elongated dramatically in an EF. […] We quantified the elongation of the cells using a long:short axis ratio. […]

[3] = tested on: HaCaT human keratinocytes; test: scratch assay, keratinocyte migration (culture inserts, time-lapse microscopy); format: cell-based

C/C1=C/C(=O)O[C@@H]2C[C@@H](CC[C@H](C)/C=C\C=C\CC1)O[C@@](O)([C@@H]1CSC(=O)N1)C2 [Latrunculin A]
orientation response (HUVEC cells [1]; latrunculin 50 nM, 1 hour before and during EF): suppressed the orientation response significantly
EF-induced elongation response (HUVEC cells [2]; latrunculin 50 nM): completely abolished

COc1cc([C@@H]2c3cc4c(cc3[C@H](O)[C@H]3COC(=O)[C@@H]23)OCO4)cc(OC)c1OC [IGF-1R inhibitor, picropodophyllin]
increased keratinocyte migration observed with LLEC, with IGF-1R inhibitor ([3]; 50 nM picropodophyllin just prior to scratch assay): attenuated the increased keratinocyte migration

CC(=O)N[C@@H](CS)C(=O)O [N-Acetyl Cysteine]
increased migration observed with LLEC, with N-Acetyl Cysteine ([3]; 5 mM, 1 h pretreatment before scratch assay): failed to reproduce the increased migration

1-L-6-hydroxymethyl-chiro-inositol 2-[(R)-2-O-methyl-3-O-octadecylcarbonate] [Akt inhibitor]
orientation response (HUVEC cells [1]; inhibitor 50 μM, 1 hour before and during EF): significantly decreased the orientation response
long:short axis ratio in EF-treated cells (HUVEC cells [2]): significantly decreased the long:short axis ratio

C[C@@H](N)[C@H]1CC[C@H](C(=O)Nc2ccncc2)CC1 [Y27632]
Oi (orientation index) (HUVEC cells [1]; value in the sentence on U0126 (50 μM)): 0.33±0.03
long:short axis ratio in EF-treated cells (HUVEC cells [2]): significantly decreased the long:short axis ratio

N#CC(=C(/N)Sc1ccccc1N)/C(C#N)=C(\N)Sc1ccccc1N [U0126]
orientation response (HUVEC cells [1]): decreased the orientation to a similar extent
